Values of other authors, collected in patent US20050250805A1, “Pharmaceutical ointment formulations” (Glenmark Pharmaceuticals Limited, priority 2004, published 2005).

How the values were obtained:
human subjects = settings: 50 human subjects, total of 15 applications; according to the manufacturer's brochure

CN1CCCC1=O [Pharmasolve, N-methyl-2-pyrrolidone]
PII (skin irritation; practically nonirritating to rabbit skin) (rabbit skin): 0.5
Primary dermal irritation / sensitization in repeated insult patch test (human subjects): neither a primary dermal irritant nor a sensitizer
